Here are results for 32 molecules from US11578061B2, “Inhibitors of LRRK2 kinase” (Halia Therapeutics, Inc., priority 2021, dated 2023).

Structures are written as SMILES.

In this assay the target is recombinant human LRRK2 (catalytic domain only [amino acids 970-2527], GST-tagged) (Homo sapiens (Human), UniProt Q5S007). The experiment in a line: LRRK2 Enzymatic Assay. Format: biochemical. Particulars: LRRKtide substrate, [32P]-ATP. The gist of the method: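 Radiometric P81 filter-binding read-out of [32P]-ATP transfer to LRRKtide (20 μM) by 30 nM GST-LRRK2 970-2527, 2 h at room temperature after 20 min compound preincubation (10 μM–0.5 nM, 1% DMSO). IC50 derived from % remaining activity versus DMSO.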
Chain of recombinant human LRRK2 (catalytic domain only [amino acids 970-2527], GST-tagged) (Q5S007 970-2527): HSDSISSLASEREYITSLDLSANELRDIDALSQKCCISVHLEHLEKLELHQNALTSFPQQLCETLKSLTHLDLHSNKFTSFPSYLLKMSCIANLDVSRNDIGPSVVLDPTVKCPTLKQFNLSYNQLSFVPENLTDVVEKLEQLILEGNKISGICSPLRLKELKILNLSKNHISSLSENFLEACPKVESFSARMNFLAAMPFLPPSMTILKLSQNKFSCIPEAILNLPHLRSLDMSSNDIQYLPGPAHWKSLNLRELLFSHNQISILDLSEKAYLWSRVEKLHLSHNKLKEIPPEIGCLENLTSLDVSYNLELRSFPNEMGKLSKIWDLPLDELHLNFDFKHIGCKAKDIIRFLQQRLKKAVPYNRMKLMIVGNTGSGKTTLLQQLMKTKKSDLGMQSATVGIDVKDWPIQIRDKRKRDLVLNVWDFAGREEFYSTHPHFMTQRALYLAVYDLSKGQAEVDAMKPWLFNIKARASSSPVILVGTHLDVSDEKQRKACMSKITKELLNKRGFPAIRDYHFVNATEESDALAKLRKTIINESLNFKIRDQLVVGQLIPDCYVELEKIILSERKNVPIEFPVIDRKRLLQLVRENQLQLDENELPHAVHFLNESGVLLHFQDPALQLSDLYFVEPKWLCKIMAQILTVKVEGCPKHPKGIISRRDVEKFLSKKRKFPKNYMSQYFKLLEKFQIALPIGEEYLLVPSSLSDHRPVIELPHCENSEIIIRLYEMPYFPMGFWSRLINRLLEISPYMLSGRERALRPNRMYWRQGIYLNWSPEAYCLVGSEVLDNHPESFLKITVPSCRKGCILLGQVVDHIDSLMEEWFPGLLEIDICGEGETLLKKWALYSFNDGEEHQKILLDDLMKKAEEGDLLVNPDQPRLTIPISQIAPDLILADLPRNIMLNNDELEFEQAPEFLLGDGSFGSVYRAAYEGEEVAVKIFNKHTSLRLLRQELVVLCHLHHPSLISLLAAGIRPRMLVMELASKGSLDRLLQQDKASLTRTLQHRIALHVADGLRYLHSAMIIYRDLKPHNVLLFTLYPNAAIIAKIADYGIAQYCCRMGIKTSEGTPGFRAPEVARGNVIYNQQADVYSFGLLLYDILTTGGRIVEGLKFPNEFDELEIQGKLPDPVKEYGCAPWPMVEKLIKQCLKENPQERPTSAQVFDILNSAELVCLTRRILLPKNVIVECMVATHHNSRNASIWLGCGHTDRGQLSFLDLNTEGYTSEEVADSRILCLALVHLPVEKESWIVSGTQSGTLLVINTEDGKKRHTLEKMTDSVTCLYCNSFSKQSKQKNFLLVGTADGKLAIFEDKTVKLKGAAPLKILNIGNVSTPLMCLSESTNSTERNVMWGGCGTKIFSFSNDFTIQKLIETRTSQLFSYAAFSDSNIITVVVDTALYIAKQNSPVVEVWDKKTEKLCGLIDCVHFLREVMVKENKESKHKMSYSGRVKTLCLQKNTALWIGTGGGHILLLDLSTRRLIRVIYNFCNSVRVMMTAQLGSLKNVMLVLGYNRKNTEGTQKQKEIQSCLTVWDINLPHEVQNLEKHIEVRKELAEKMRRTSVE

In the case of `OCC1CCC(COc2ccnc(Nc3ccc(N4CCOCC4)cc3)n2)CC1` (centres unmarked) [Example 139, (4-(((2-((4-morpholinophenyl)amino)pyrimidin-4-yl)oxy)methyl)cyclohexyl)methanol22], the IC50 was in the range of 50 to 200 nM. For `OC1CC2(C1)CC(COc1nc(Nc3ccc(N4CCOCC4)cc3)ncc1F)C2` (centres unmarked) [Example 134, 6-(((5-fluoro-2-((4-morpholinophenyl)amino)pyrimidin-4-yl)oxy)methyl)spiro[3.3]heptan-2-ol] the value was less than 50 nM. For `N[C@H]1CC[C@H](COc2nc(Nc3ccc(N4CCOCC4)cc3)ncc2C(F)(F)F)CC1` [Example 7, 4-(((1R,4R)-4-aminocyclohexyl)methoxy)-N-(4-morpholinophenyl)-5-(trifluoromethyl) pyrimidin-2-amine] the value was more than 400 nM; for `CC(=O)N[C@H]1C[C@H](COc2ccnc(Nc3ccc(N4CCOCC4)cc3)n2)C1` [Example 94, N-((1R,3R)-3-(((2-((4-morpholinophenyl)amino)pyrimidin-4-yl)oxy)methyl)cyclo-butyl)acetamide], more than 400 nM; for `Cc1nn(C(C)C)cc1Nc1ncc(F)c(OC[C@H]2CC[C@H](O)CC2)n1` [Example 230, (1R,4R)-4-(((5-fluoro-2-((1-isopropyl-3-methyl-1H-pyrazol-4-yl)amino)pyrimidin-4-yl)oxy)methyl)cyclohexan-1-ol], 50 to 200 nM. The result for `COC1CCC(COc2nc(Nc3cn(C(C)(C)C#N)nc3C)ncc2Cl)CC1` (centres unmarked) [Example 161, 2-(4-((5-chloro-4-((4-methoxycyclohexyl)methoxy)pyrimidin-2-yl)amino)-3-methyl-1H-pyrazol-1-yl)-2-methylpropanenitrile] reads less than 50 nM. For the molecule `Cc1nn(C(C)(C)C#N)cc1Nc1ncc(F)c(OCC2CCC(C)(O)CC2)n1` (centres unmarked) [Example 253, 2-(4-((5-fluoro-4-((4-hydroxy-4-methylcyclohexyl)methoxy)pyrimidin-2-yl)amino)-3-methyl-1H-pyrazol-1-yl)-2-methylpropanenitrile], the IC50 was less than 50 nM. Consider `CC(=O)N[C@H]1CC[C@H](COc2nc(Nc3ccc(N4C[C@@H](C)O[C@@H](C)C4)cc3)ncc2F)CC1` [Example 83], for which the half-maximal inhibitory concentration (IC50) was less than 50 nM.

Regarding `CC(=O)N[C@H]1CC[C@H](COc2nc(Nc3cn(C(C)C)nc3Cl)ncc2F)CC1` [Example 202, N-((1R,4R)-4-(((2-((3-chloro-1-isopropyl-1H-pyrazol-4-yl)amino)-5-fluoropyrimidin-4-yl)oxy)methyl)cyclo-hexyl)acetamide], the 50% inhibitory concentration (IC50) was less than 50 nM. The result for `CNC[C@H]1CC[C@H](COc2nc(Nc3cn(C4CC(C#N)C4)nc3C)ncc2Cl)CC1` (stereo partly drawn) [Example 51, 3-(4-((5-chloro-4-(((1R,4R)-4-((methylamino)methyl)cyclohexyl)methoxy)pyrimidin-2-yl)amino)-3-methyl-1H-pyrazol-1-yl)cyclobutane-1-carbonitrile] reads less than 50 nM. For `CC(=O)N[C@H]1CC[C@H](COc2nc(Nc3ccc(N4C5CCC4COC5)cc3)ncc2F)CC1` [Example 181, N-((1R,4R)-4-(((2-((4-(3-oxa-8-azabicyclo[3.2.1]octan-8-yl)phenyl)amino)-5-fluoropyrimidin-4-yl)oxy)methyl)cyclo-hexyl)acetamide] the value was less than 50 nM. The result for `Cc1nn(C(C)(C)C#N)cc1Nc1ncc(F)c(OCC2CCC(OC(C)C)CC2)n1` (racemic) [Example 280, 2-(4-((5-fluoro-4-((4-isopropoxycyclohexyl)methoxy)pyrimidin-2-yl)amino)-3-methyl-1H-pyrazol-1-yl)-2-methylpropanenitrile] reads 50 to 200 nM; that for `Cc1nn(C2CC(C#N)C2)cc1Nc1ncc(Cl)c(OCC2CCN(C)CC2F)n1` (centres unmarked) [Example 63, 3-(4-((5-chloro-4-((3-fluoro-1-methylpiperidin-4-yl)methoxy)pyrimidin-2-yl)amino)-3-methyl-1H-pyrazol-1-yl)cyclobutane-1-carbonitrile], more than 400 nM.

Consider `CC1(O)CCC(COc2nc(Nc3ccc(N4CCOCC4)cc3)ncc2F)CC1` (centres unmarked) [Example 251, 4-(((5-fluoro-2-((4-morpholinophenyl)amino)pyrimidin-4-yl)oxy)methyl)-1-methylcyclohexan-1-ol], for which the half-inhibitory concentration (IC50) was 50 to 200 nM. For `C[C@@H]1CN(c2ccc(Nc3ncc(F)c(OC[C@@H]4CCC[C@@H](O)C4)n3)cc2)C[C@H](C)O1` [Example 249, (1R,3R)-3-(((2-((4-((2S,6R)-2,6-dimethylmorpholino)phenyl)amino)-5-fluoropyrimidin-4-yl)oxy)methyl)cyclohexan-1-ol] the value was less than 50 nM; for `Cc1nn(C(C)(C)C#N)cc1Nc1ncc(F)c(OCC2CCCC(O)CC2)n1` (single isomer, unassigned) [Example 263, 2-(4-((5-fluoro-4-((4-hydroxycycloheptyl)methoxy)pyrimidin-2-yl)amino)-3-methyl-1H-pyrazol-1-yl)-2-methylpropanenitrile], less than 50 nM; for `CC(=O)N[C@H]1CC[C@H](COc2nc(Nc3cn(C4CC4)nc3C)ncc2F)CC1` [Example 196, N-((1R,4R)-4-(((2-((1-cyclopropyl-3-methyl-1H-pyrazol-4-yl)amino)-5-fluoropyrimidin-4-yl)oxy)methyl)cyclo-hexyl)acetamide], less than 50 nM. The result for `COc1cnc(Nc2ccc(N3CCOCC3)cc2)nc1OCC1CCCCC1` [Example 152, 4-(cyclohexylmethoxy)-5-methoxy-N-(4-morpholinophenyl)pyrimidin-2-amine] reads less than 50 nM; that for `FC1(F)CCC(COc2nc(Nc3ccc(N4CCOCC4)cc3)ncc2Cl)CC1` [Example 153, 5-chloro-4-((4,4-difluorocyclohexyl)methoxy)-N-(4-morpholinophenyl)pyrimidin-2-amine], 50 to 200 nM; that for `CC(=O)NC1CCC(C)(COc2ccnc(Nc3ccc(N4C[C@@H](C)O[C@@H](C)C4)cc3)n2)CC1` (stereo partly drawn) [Example 90, N-(4-(((2-((4-((2S,6R)-2,6-dimethylmorpholino)phenyl)amino)py-rimidin-4-yl)oxy)methyl)-4-methylcyclohexyl) acetamide], more than 400 nM. As to `COc1cnc(Nc2ccc(N3CCOCC3)cc2)nc1OC[C@H]1CC[C@H](N(C)C)CC1` [Example 55, 4-(((1R,4R)-4-(dimethylamino)cyclo-hexyl)methoxy)-5-methoxy-N-(4-morpholinophenyl)py-rimidin-2-amine], the IC50 was less than 50 nM.

Turning to `CC1(C(=O)N[C@H]2CC[C@H](COc3ccnc(Nc4ccc(N5CCOCC5)cc4)n3)CC2)CC1` [Example 71, 1-methyl-N-((1R,4R)-4-(((2-((4-morpholinophenyl)amino)pyrimidin-4-yl)oxy)methyl)cyclo-hexyl)cyclopropane-1-carboxamide], the half-maximal inhibitory concentration (IC50) is more than 400 nM. For `C[C@@H]1CN(c2ccc(Nc3ncc(F)c(OCC4CCC(O)CC4)n3)cc2)C[C@H](C)O1` (stereo partly drawn) [Example 124, 4-(((2-((4-((2S,6R)-2,6-dimethylmorpholino)phenyl)amino)-5-fluoropyrimidin-4-yl)oxy)methyl)cyclohexan-1-ol] the value was less than 50 nM; for `Cc1nn(C(C)(C)C#N)cc1Nc1ncc(F)c(OC[C@H]2CC[C@H](O)CC2)n1` [Example 125, 2-(4-((5-fluoro-4-(((1R,4R)-4-hydroxycyclohexyl)methoxy)pyrimidin-2-yl)amino)-3-methyl-1H-pyrazol-1-yl)-2-methylpropanenitrile], less than 50 nM. For `CC(C)n1cc(Nc2ncc(F)c(OC[C@H]3CC[C@H](O)CC3)n2)c(Cl)n1` [Example 238, (1R,4R)-4-(((2-((3-chloro-1-isopropyl-1H-pyrazol-4-yl)amino)-5-fluoropyrimidin-4-yl)oxy)methyl)cyclohexan-1-ol], the IC50 was in the range of 200 to 400 nM. The result for `C[C@@H]1CN(c2ccc(Nc3ncc(F)c(OCC4CCS(=O)(=O)CC4)n3)cc2)C[C@H](C)O1` [Example 288, 4-(((2-((4-((2R,6S)-2,6-dimethylmorpholino)phenyl)amino)-5-fluoropyrimidin-4-yl)oxy)methyl)tetrahydro-2H-thiopyran 1,1-dioxide] reads more than 400 nM; that for `Cc1nn(C2CC2)cc1Nc1ncc(F)c(OC[C@H]2CC[C@H](O)CC2)n1` [Example 231, (1R,4R)-4-(((2-((1-cyclopropyl-3-methyl-1H-pyrazol-4-yl)amino)-5-fluoropyrimidin-4-yl)oxy)methyl)cyclohexan-1-ol], 50 to 200 nM; that for `Cc1nn(C(C)(C)C#N)cc1Nc1ncc(F)c(OCC2CC(C#N)C2)n1` (single isomer, unassigned) [Example 291, 3-(((2-((1-(2-cyanopropan-2-yl)-3-methyl-1H-pyrazol-4-yl)amino)-5-fluoropyrimidin-4-yl)oxy)methyl)cyclobutane-1-carbonitrile], less than 50 nM. The result for `N[C@H]1CC[C@H](COc2ccnc(Nc3cccc(N4CCOCC4)c3)n2)CC1` [Example 6, 4-(((1R,4R)-4-aminocyclohexyl)methoxy)-N-(3-morpholinophenyl) pyrimidin-2-amine] reads less than 50 nM; that for `CC(=O)N[C@H]1CC[C@H](COc2nc(Nc3cn(C)nc3Cl)ncc2F)CC1` [Example 201, N-((1R,4R)-4-(((2-((3-chloro-1-methyl-1H-pyrazol-4-yl)amino)-5-fIuoropyrimidin-4-yl)oxy)methyl)cyclo-hexyl)acetamide], less than 50 nM; that for `Cc1nn(C(C)(C)C#N)cc1Nc1ncc(Cl)c(OCC2CCN(C(=O)C(F)F)CC2)n1` [Example 111, 2-(4-((5-chloro-4-((1-(2,2-difluoro-acetyl)piperidin-4-yl)methoxy)pyrimidin-2-yl)amino)-3-methyl-1H-pyrazol-1-yl)-2-methyl-propanenitrile], less than 50 nM. The result for `CCc1nn(C)cc1Nc1ncc(F)c(OC[C@H]2CC[C@H](O)CC2)n1` [Example 233, (1R,4R)-4-(((2-((3-ethyl-1-methyl-1H-pyrazol-4-yl)amino)-5-fluoropyrimidin-4-yl)oxy)methyl)cyclohexan-1-ol] reads less than 50 nM.
